Laboratory results published in PMC8703450, “New Heterocyclic Combretastatin A-4 Analogs: Synthesis and Biological Activity of Styryl-2(3H)-benzothiazolones” (Pharmaceuticals, 2021).
Read-outs that look alike come from different tables or passages of the source.

Assays:
[1] = test system: colchicine binding site of β-tubulin; assay: Colchicine-binding site assay (EBI competition) in EA.hy926 cells; assay type: cell-based, human; details: then 100 µM EBI 2 h, Western blot
Procedure: N,N′-ethylene-bis(iodoacetamide) (abcam, ab144980) was dissolved in DMSO to a final concentration of 50 mM. EA.hy926 cells were seeded at density of 1 × 10^5 cells/mL and incubated overnight. […] Cells were lysed with Laemmli buffer and subjected to Western blot analysis for β-tubulin [66, 67]. The detailed Western blot method is as shown above.

α,β-tubulin = assay: In vitro quantification of polymeric vs. soluble tubulin fractions in EA.hy926 cells; assay type: cell-based, human; details: for soluble vs. polymerized tubulin ratio: EA.hy926, 1 µM, 6 h, DMSO control 2.33 ± 0.14
Procedure: To assess the early effects on the microtubule cytoskeleton in vitro, EA.hy926 cells were cultured for 24 h in 6-cm dishes (3 × 10^5 cells). They were exposed to […] (control), 1 μM CA-4, paclitaxel, or increasing concentrations of 26Z (50, 100, 250, 2500, 10,000 nM) for 6 h. Cells were washed with PBS and lysed directly in the dishes with hypotonic lysis buffer (20 mM Tris-HCl, 1 mM MgCl2, 2 mM EGTA, 0.5% Triton X-100, glycerol 10%, pH 6.8), supplemented with protease inhibitors (2 μg/mL leupeptin, 2 μg/mL pepstatin, 0.4 mM Na vanadate, 0.5 mM PMSF, 1 mM DTT), for 3 min at 30 °C. The soluble fraction was immediately collected, mixed with 5× sample buffer, and boiled at 95 °C for 5 min. The polymerized fraction was collected directly from the culture dish following 10 min of incubation at room temperature with 1× sample buffer.
For the concentration-dependent assay, the cells were harvested by scraping and centrifuged at 1000 g for 5 min, and then lysed with the hypotonic cell lysis buffer for 10 min at room temperature. Tubulin fractions were obtained by centrifugation at 12,000 × g for 10 min.
Equal volumes of the samples were subjected to 10% SDS-PAGE followed by western blotting. Detection of β-tubulin content was accomplished with an anti-β-tubulin mouse monoclonal antibody (sc-101527, Santa Cruz Biotechnology).

EA.hy926 cells = assay: Clonogenic survival assay; assay type: cell-based, human; details: 72 h treatment + 6 days recovery
Procedure: EA.hy926 cells were seeded at 300 cells/well on a 6-well plate and incubated for 24 h. The cells were treated with different concentrations of test compounds for 72 h. After six additional days of growth in a fresh medium to form visible colonies, cells were washed with phosphate-buffered saline (PBS, pH 7.4) and stained with crystal violet (0.5%, w/v) in 6% glutaraldehyde. After 30 min of incubation, the plates were washed with tap water, dried, photographed, and analyzed using ImageJ [79]. Raw data were normalized to the corresponding DMSO control for each independent experiment. After normalization, statistically significant differences for colony-forming efficiency (CFE) values versus […] were calculated.

MDA-MB-231 cells = assay: MTT cytotoxicity assay, MDA-MB-231; assay type: cell-based, human
Procedure: (§1) All tested compounds were dissolved in DMSO at 25 mM initial concentration and diluted with medium to obtain the working concentrations (0.01 nM–250 µM). Serial drug dilutions were prepared in medium immediately before each experiment. The DMSO working concentration in the medium was […]. For the MTT assay, cells were seeded into 96-well microtitre plates at a density of 1 × 10^4 in 100 µL complete medium per well. They were further incubated for 24 h, followed by treatment with CA-4 analogs up to 72 h. Cell viability was determined using the MTT assay. Ten µL of MTT solution (5 mg/mL) was added to each well and further incubated for 3 h at 37 °C. To dissolve the formazan product, 100 µL/well of 99.5% isopropanol was added. Cell viability was determined by measuring absorbance at 550/630 nm using a DTX880 plate reader (Beckman Coulter, USA). Results, expressed as concentrations that inhibit 20% (IC20), 50% (IC50), and 80% (IC80) of cell growth, were calculated using GraphPad Prism 8.0.1.
(§2) Table S 3.1. Description of eukaryotic cell lines used for MTT assay. […]
Kindly provided 3.1 g/L Glucose,
mammary by Prof. Iana DMEM/F12 with
Breast MDA- gland/breast; derived Tsoneva 10% FBS, 100 U/mL
MB-231 h from metastatic site: (IBPhBME – penicillin, 100 U/mL
pleural effusion; BAS) streptomycin (Lonza). […]

HT-29 cells = assay: MTT cytotoxicity assay, HT-29; assay type: cell-based, human; details: for IC50: Homo sapiens
Procedure: as §1, §2
HT-29 h colon, colorectal Radostina adenocarcinoma Alexandrova 3.1 g/L D-Glucose […]
colon, colon Kindly provided U/mL streptomycin

[2] = test system: rhodamine-labeled α,β-tubulin; assay: Ex vivo rhodamine-tubulin polymerization (fluorescence microscopy); details: 20 μM, 37 °C, 45 min
Procedure: TAMRA-Tubulin (TL590M, Cytoskeleton) diluted in GTB buffer (PEM, 10% glycerol, 1 mM GTP) was mixed with unlabeled α,β-tubulin (T240, Cytoskeleton) at a ratio of 1:3 (v/v) to a concentration of 4.0 mg/mL. […] Samples were then centrifuged for 20 min at 30,000× g. The pellets were diluted in 6 µL PEM buffer, containing 1 mM GTP and 0.5% glutaraldehyde, mixed with anti-fade mounting media (P36934, Invitrogen, Eugene, USA), and examined under a confocal LSM 980 Airyscan microscope (Carl Zeiss AG, Oberkochen, Germany).

caspase 3, 8 and 9 = assay: Western blot analysis of caspase activation; assay type: cell-based, human; details: EA.hy926, 24 h
Procedure: A total of 7 × 10^5 cells was seeded in 100-mm dishes. On the next day, cells were treated with the corresponding concentrations of CA-4 and 26Z. After 24 h, treated cells were collected and lysed with lysis buffer (50 mM HEPES, pH 7.7, 250 mM KCl, 10% glycerol, 0.1% Nonidet P-40) containing protease inhibitors (0.4 mM sodium vanadate, 0.5 mM PMSF, 1 mM DTT, […]) by incubation on ice for 30 min and overnight at −20 °C [80]. The concentration of obtained total cell protein lysates was determined by the method of Bradford. Samples were separated on 12% polyacrylamide gels and transferred to nitrocellulose or PVDF membranes. Immunoblotting was performed by blocking in 3.5% non-fat dried milk in PBS, with subsequent incubation for 1 h with primary antibodies for caspase 3 (sc-56053, Santa Cruz Biotechnology), caspase 8 (sc-81656, Santa Cruz Biotechnology), caspase 9 (sc-8355, Santa Cruz Biotechnology), and PARP-1 (sc-8007, Santa Cruz Biotechnology), diluted in PBS containing 0.05% Tween-20. This was followed by incubation with a peroxidase-conjugated secondary antibody m-Igk BP-HRP (sc-516102, Santa Cruz Biotechnology) or a donkey anti-rabbit IgG-HRP (sc-2313, Santa Cruz Biotechnology) for 1 h, and detection of the chemiluminescent signal was accomplished with ECL Select^TM Western Blotting Detection Reagent (Amersham) on X-ray film. β–actin was used as a loading control and mouse monoclonal antibody was used following the manufacturer’s instruction (sc-47778, Santa Cruz Biotechnology).

Row | SMILES | tubulin EBI-adduct formation ([1]; EA.hy926, 10 μM compound 2 h) | soluble vs. polymerized tubulin ratio (α,β-tubulin) | inhibition at 0.001 µM (EA.hy926 cells; Homo sapiens, EA.hy 926, EA.hy926, 1 nM, read-out: inhibition of endothelial cell colony formation) [%] | Cytostatic activity (% viable cells) (MDA-MB-231 cells; MDA-MB-231 cells, 72 h, MTT) [%] | IC50 (HT-29 cells; HT-29 cells, 72 h, MTT, read-out: IC50) [nM] | fluorescent microtubule fiber formation [2] | active forms of effector caspase 3 (caspase 3, 8 and 9; CA-4 IC50 and 26Z IC20) | tubulin EBI-adduct formation ([1]; EA.hy926, 25 µM compound 2 h) | concentration above which the depolymerizing effect is clearly visible (α,β-tubulin; EA.hy926, 6 h, 0.01–10 μM) | decrease in colony number (EA.hy926 cells; EA.hy926, 250 nM) [%] | reduction in colony formation (EA.hy926 cells; EA.hy926, 2.5, 10 and 25 µM) | IC50 (MDA-MB-231 cells; Homo sapiens, MDA-MB-231, 72 h) [nM] | greater cytotoxic effect compared to CA-4 (HT-29 cells; HT-29 cells, 72 h) | IC50 (HT-29 cells; HT-29, 72 h) [nM] | activation of caspases 8 and 9 (caspase 3, 8 and 9) | active forms of effector caspase 3 (caspase 3, 8 and 9; 26Z at IC50 and IC80)
1 | COc1ccc(/C=C\c2cc(OC)c(OC)c(OC)c2)cc1O [CA-4, Combretastatin A-4] | inhibited | 3.3 ± 0.61 | 80 | 55 | 2160 ± 230 | blocked the process of fiber formation | to a lesser extent | – | – | – | – | – | – | – | – | –
2 | COc1cc(/C=C\c2ccc3c(c2)sc(=O)n3C)cc(OC)c1OC [Compound 26Z, (Z)-3-methyl-6-(3,4,5-trimethoxystyryl)-2(3H)-benzothiazolone] | – | 2.74 ± 0.43 | – | – | – | blocked the process of fiber formation | to a lesser extent | inhibited | higher than 0.05 μM | 90 | about 100% | 1350 ± 420 | more than 250 times | 8 ± 1 | activated | detected
